# Test results from ChEMBL document CHEMBL1201862, “PubChem BioAssay data set” (2004).
# Active and inactive are the calls of the source.
# Experiments:
# [1] = target: ADP-ribosylation factor GTPase-activating protein 1 (Rattus norvegicus, UniProt Q62848); test: Fluorescence polarization-based biochemical high throughput dose response screening assay to identify inhibitors of ADP-ribosylation factor GTPase activating protein 1 (ARFGAP1).; format: functional
# [2] = target: Arf-GAP with SH3 domain, ANK repeat and PH domain-containing protein 1 (Homo sapiens, UniProt Q9ULH1); format: functional;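 further: biochemical fluorescence polarization dose–response screen measuring inhibition of ASAP1; ASAP1 GAP domain stimulating GTP hydrolysis by truncated human ARF1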
# [3] = target: Broad substrate specificity ATP-binding cassette transporter ABCG2 (Homo sapiens, UniProt Q9UNQ0); test: ABCG2 efflux pump inhibitors, dose response, Ig-MXP3 cells, flow cytometry (AID 1690); format: functional
# [4] = target: T1, Scavenger receptor class B member 1 (Mus musculus, UniProt Q61009); test: inhibitors of SR-BI mediated HDL lipid uptake, dose response, ldlA[mSR-BI] cells, fluorescence, cherry pick (AID 493194); format: functional, cell-based;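 further: cellular uptake of fluorescent DiI-labeled HDL measured as cell fluorescence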
# T1 sequence (Q61009 whole entry): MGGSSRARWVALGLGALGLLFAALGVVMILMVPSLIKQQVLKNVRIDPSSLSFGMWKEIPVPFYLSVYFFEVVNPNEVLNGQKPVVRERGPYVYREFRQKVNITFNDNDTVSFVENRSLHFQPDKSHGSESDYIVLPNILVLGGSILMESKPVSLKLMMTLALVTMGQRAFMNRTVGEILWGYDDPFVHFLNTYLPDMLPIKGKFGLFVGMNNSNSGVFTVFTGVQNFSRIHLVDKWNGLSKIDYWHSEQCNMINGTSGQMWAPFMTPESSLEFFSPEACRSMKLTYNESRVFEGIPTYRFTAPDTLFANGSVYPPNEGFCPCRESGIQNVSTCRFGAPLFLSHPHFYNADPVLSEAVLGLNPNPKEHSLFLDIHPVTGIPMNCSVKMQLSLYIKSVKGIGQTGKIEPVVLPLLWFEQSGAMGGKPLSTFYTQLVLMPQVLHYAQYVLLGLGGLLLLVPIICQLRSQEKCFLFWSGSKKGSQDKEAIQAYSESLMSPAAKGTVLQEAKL
# [5] = target: Long-chain-fatty-acid--AMP ligase FadD28 (Mycobacterium tuberculosis, UniProt P9WQ59); test: Fluorescence polarization aasay to screen for inhibitors that compete for the binding of FadD28 to a bisubstrate Measured in Biochemical System Using Plate Reader - 2147-01_Inhibitor_Dose_CherryPick_Activity.; format: functional, Mycobacterium tuberculosis H37Rv
# [6] = MDA-MB-231 cell growth inhibition, dose response, cytotoxicity control for RAD54 inhibitor project, CellTiter-Glo luminescence, cherry-pick (AID 651692); format: functional, cell-based
# [7] = Counterscreen for activators of the function of SWI/SNF related, matrix associated, actin dependent regulator of chromatin, subfamily a, member 2 (SMARCA2, BRM): Luminescence-based cell-based high throughput dose response assay to identify non-selective compounds using the VP16 reporter assay.; format: functional
# [8] = target: SWI/SNF-related matrix-associated actin-dependent regulator of chromatin subfamily A member 2 (Homo sapiens, UniProt P51531); test: Luminescence-based cell-based high throughput dose response assay to identify activators of the function of SWI/SNF related, matrix associated, actin dependent regulator of chromatin, subfamily a, member 2 (SMARCA2, BRM).; format: functional
# [9] = target: T2, DNA repair and recombination protein RAD54-like (Homo sapiens, UniProt Q92698); test: inhibitors of human RAD54 branch migration, confirmation, biochemical, fluorescence, cherry-picked samples, dose series (AID 651657); format: functional
# T2 sequence (Q92698 whole entry): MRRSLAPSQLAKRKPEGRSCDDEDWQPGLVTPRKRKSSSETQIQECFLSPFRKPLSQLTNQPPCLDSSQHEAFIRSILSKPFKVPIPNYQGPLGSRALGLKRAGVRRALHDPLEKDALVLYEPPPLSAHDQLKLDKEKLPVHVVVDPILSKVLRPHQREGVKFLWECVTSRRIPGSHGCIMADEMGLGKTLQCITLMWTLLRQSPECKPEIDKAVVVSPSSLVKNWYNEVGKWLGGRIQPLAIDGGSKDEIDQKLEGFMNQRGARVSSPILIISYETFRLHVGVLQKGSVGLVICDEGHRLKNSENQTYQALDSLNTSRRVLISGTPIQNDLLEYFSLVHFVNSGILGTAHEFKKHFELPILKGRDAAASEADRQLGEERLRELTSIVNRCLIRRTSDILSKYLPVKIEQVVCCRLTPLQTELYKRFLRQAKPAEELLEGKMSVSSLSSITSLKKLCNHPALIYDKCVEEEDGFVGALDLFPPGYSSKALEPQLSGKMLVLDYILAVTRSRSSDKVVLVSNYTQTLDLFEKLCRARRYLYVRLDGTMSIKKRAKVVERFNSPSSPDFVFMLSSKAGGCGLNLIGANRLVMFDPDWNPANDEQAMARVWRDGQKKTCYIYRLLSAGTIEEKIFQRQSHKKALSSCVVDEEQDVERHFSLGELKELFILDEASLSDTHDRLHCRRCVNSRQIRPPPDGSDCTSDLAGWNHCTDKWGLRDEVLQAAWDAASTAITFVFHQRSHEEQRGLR
# [10] = target: T3, DNA repair protein RAD52 homolog (Homo sapiens, UniProt P43351); format: functional, biochemical
# T3 sequence (P43351 whole entry): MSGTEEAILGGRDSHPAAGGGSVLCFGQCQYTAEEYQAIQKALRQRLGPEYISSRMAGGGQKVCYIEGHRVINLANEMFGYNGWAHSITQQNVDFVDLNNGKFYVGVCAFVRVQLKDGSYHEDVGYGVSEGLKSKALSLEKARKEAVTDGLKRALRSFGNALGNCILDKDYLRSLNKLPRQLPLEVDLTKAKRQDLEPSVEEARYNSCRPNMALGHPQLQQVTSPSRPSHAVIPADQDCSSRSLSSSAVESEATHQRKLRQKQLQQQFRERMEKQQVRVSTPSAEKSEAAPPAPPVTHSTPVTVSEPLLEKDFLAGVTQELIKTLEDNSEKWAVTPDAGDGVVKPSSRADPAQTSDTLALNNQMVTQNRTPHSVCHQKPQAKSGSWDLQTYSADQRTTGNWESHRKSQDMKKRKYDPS
# [11] = target: Matrix metalloproteinase-14 (Homo sapiens, UniProt P50281); test: Dose Response confirmation of uHTS hits for a small molecule inhibitors of MT1-MMP activation in a fluorescence assay set 1.; format: functional
# [12] = microbe, parasite or virus in culture; format: functional; conditions: Mycobacterium tuberculosis
# [13] = target: T4, Zinc finger protein mex-5 (Caenorhabditis elegans, UniProt Q9XUB2); test: MEX-5/TCR-2 RNA interaction inhibitors, dose response, biochemical, C. elegans, fluorescence polarization (AID 1960)
# T4 sequence (Q9XUB2 whole entry): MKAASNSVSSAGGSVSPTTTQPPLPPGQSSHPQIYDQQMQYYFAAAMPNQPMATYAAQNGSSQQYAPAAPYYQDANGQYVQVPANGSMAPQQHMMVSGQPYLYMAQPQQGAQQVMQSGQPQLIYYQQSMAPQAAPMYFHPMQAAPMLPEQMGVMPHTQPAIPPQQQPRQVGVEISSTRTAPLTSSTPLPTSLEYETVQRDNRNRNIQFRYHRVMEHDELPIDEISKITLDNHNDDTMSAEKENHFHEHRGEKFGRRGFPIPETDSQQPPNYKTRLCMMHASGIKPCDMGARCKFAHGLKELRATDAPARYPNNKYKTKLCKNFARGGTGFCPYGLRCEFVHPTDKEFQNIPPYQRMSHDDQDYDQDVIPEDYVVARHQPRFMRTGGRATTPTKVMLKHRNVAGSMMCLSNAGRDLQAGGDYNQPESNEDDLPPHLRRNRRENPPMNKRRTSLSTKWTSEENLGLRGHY
# Beta-lactamase [14] = target: Beta-lactamase (Salmonella choleraesuis (strain SC-B67), UniProt Q5J463)
# [15] = target: T5, RNA-binding protein pos-1 (Caenorhabditis elegans, UniProt G5EF15); test: inhibitors of POS-1/mex-3 RNA binding, dose response, biochemical, fluorescence polarization (AID 1964);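 further: purified POS-1 fused to maltose binding protein made in E. coli; potency of compounds blocking POS-1 binding to fluorescent RNA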
# T5 sequence (G5EF15 whole entry): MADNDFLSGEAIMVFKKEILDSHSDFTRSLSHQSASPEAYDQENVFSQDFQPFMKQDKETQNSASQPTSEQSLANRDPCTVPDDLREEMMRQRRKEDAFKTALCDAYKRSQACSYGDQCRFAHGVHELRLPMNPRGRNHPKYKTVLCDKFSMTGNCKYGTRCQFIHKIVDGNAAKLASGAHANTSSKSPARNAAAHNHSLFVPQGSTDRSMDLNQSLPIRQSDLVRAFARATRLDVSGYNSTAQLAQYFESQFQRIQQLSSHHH
# Beta-lactamase [16] = target: Beta-lactamase (Pseudomonas aeruginosa, UniProt Q79MP6);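 further: biochemical dose-response test of metallo-beta-lactamase enzyme inhibition, read out by epi-absorbance; purified recombinant IMP-1 metallo-beta-lactamase with nitrocefin as substrate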
# Mu-type opioid receptor = Mu-type opioid receptor (Homo sapiens, UniProt P35372); format: functional, cell-based;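 further: U2OS cells with beta-arrestin recruitment to OPRM1 by beta-gal complementation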
# [17] = target: 5-hydroxytryptamine receptor 2A (Mus musculus, UniProt P35363); format: functional, cell-based;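 further: CHO-K1 cells with tagged receptor and beta-arrestin; agonist potency measured as compound-induced activation of the receptor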
# [18] = target: Nuclear receptor subfamily 0 group B member 1 (Homo sapiens, UniProt P51843); format: functional, cell-based;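 further: HEK293T cells transfected with SF-1 and DAX-1 plus StAR promoter luciferase reporter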
# cells [19] = format: functional, cell-based
# HeLa = test: HeLa cell cytotoxicity, dose response, cytotoxicity control, ATP luminescence, cherry-pick samples (AID 687004); format: functional, cell-based; conditions: Homo sapiens
# HEK293 = test: HEK293T cell cytotoxicity, dose response, cytotoxicity control, ATP luminescence, cherry-pick samples (AID 687005); format: functional, cell-based; conditions: Homo sapiens;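 further: cells exposed to compound for 48 hours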
# [20] = HEK293 Cytotoxicity Assay Measured in Cell-Based System Using Plate Reader - 7071-01_Inhibitor_Dose_CherryPick_Activity_Set2.; format: functional
# [21] = target: T1, Scavenger receptor class B member 1; test: inhibitors of SR-BI-mediated HDL uptake, dose response, cell-based, ldlA[mSR-BI] CHO, DiI fluorescence, dry powder, set 10 (AID 624029); format: functional
# [22] = T. cruzi growth inhibition in host cells, dose response, cell-based, plate reader, dry powder, set 2 (AID 652275); format: functional
# [23] = Late stage assay provider results from the probe development effort to identify inhibitors of the Plasmodium falciparum M17 Leucine Aminopeptidase (M17LAP): radiolabel-based cell-based dose response assay to identify compounds that inhibit P. falciparum growth in RBCs Set 2.; format: functional
# [24] = Vero E6 cell cytotoxicity, dose response, cytotoxicity control for non-replicating M. tuberculosis project, secondary assay (AID 492998); format: functional, VeroE6; conditions: Vero C1008
# [25] = target: T6, Sentrin-specific protease 8 (Homo sapiens, UniProt Q96LD8); format: functional
# T6 sequence (Q96LD8 whole entry): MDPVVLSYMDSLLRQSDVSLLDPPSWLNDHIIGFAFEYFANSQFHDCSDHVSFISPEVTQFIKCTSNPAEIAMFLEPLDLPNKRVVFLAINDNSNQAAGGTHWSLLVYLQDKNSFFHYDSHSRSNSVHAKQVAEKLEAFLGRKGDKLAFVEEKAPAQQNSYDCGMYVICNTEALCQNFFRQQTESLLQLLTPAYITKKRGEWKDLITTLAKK
# [26] = target: T6, Sentrin-specific protease 8; format: functional; remark: listed apart in the source
# [27] = THP-1 cell cytotoxicity, dose response, cytotoxicity control for non-replicating M. tuberculosis project (AID 489025); format: functional
# [28] = inhibitors of intracellular T. cruzi replication, confirmation, NIH3T3 host cells, beta-gal luminescence (AID 2044); format: functional, cell-based;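 further: intracellular parasites grown in NIH/3T3 mouse fibroblasts as host cells; luminescent beta-galactosidase reporter signal from transgenic T. cruzi replicating inside host cells; inhibitors lower the luminescence signal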
# [29] = cytotoxicity toward NIH3T3 fibroblasts, dose response, counter-screen, cell-based, ATP luminescence, mouse fibroblasts (AID 2010); format: functional;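 further: cells exposed to compound for about 90 hours before reading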
# cells [30] = format: functional
# [31] = HepG2 cell cytotoxicity, dose response, cytotoxicity control for non-replicating M. tuberculosis project (AID 489018); format: functional; conditions: Mycobacterium tuberculosis
# Sequence of SWI/SNF-related matrix-associated actin-dependent regulator of chromatin subfamily A member 2 (P51531 whole entry): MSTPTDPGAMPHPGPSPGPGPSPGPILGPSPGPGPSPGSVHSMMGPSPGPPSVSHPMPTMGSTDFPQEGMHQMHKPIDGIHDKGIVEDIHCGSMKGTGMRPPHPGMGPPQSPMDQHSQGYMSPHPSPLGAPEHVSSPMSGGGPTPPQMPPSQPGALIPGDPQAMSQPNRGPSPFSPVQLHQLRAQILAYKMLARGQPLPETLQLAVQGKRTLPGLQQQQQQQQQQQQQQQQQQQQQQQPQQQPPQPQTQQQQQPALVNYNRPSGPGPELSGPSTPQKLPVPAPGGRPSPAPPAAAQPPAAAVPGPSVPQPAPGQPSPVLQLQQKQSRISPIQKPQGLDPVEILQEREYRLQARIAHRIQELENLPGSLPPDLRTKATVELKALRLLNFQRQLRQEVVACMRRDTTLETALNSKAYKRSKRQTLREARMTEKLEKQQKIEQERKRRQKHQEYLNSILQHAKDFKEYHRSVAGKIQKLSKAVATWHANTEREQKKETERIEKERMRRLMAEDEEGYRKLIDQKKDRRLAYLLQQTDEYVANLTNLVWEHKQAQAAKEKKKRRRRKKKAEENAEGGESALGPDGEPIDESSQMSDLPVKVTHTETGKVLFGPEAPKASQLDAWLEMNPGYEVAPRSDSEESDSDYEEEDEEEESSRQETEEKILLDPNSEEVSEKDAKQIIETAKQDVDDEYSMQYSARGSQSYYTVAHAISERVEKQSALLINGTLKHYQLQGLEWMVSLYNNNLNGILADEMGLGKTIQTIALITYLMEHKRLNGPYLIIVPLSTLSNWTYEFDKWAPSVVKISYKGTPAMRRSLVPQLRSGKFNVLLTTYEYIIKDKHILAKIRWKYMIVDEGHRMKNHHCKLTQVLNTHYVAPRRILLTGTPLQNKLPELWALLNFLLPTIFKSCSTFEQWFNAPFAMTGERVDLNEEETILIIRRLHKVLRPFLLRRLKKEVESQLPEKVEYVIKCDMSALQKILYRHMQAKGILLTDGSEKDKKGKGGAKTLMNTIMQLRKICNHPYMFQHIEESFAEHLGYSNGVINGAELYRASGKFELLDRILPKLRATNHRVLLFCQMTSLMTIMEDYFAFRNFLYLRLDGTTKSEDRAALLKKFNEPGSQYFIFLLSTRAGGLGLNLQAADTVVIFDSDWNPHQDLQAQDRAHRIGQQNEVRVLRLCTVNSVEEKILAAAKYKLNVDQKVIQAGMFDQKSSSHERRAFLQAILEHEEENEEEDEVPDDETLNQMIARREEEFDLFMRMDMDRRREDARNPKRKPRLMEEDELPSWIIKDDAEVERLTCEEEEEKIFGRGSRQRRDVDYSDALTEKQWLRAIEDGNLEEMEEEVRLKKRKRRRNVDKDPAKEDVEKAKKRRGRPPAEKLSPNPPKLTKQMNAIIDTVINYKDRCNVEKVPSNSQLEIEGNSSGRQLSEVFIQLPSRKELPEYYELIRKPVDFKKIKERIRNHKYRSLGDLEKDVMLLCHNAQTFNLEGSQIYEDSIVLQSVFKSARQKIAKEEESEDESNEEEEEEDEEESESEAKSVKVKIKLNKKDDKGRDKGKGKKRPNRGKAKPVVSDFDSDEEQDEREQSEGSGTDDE
# Sequence of Beta-lactamase (Pseudomonas aeruginosa, UniProt Q79MP6) (Q79MP6 whole entry): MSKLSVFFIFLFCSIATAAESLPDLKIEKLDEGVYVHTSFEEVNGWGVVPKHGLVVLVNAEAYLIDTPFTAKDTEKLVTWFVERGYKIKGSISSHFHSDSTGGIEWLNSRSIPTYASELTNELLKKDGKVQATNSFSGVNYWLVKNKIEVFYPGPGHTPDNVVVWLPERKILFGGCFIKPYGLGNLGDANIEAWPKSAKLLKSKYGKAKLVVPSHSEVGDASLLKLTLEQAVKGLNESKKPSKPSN
# Sequence of Arf-GAP with SH3 domain, ANK repeat and PH domain-containing protein 1 (Q9ULH1 whole entry, the tested form may be a part): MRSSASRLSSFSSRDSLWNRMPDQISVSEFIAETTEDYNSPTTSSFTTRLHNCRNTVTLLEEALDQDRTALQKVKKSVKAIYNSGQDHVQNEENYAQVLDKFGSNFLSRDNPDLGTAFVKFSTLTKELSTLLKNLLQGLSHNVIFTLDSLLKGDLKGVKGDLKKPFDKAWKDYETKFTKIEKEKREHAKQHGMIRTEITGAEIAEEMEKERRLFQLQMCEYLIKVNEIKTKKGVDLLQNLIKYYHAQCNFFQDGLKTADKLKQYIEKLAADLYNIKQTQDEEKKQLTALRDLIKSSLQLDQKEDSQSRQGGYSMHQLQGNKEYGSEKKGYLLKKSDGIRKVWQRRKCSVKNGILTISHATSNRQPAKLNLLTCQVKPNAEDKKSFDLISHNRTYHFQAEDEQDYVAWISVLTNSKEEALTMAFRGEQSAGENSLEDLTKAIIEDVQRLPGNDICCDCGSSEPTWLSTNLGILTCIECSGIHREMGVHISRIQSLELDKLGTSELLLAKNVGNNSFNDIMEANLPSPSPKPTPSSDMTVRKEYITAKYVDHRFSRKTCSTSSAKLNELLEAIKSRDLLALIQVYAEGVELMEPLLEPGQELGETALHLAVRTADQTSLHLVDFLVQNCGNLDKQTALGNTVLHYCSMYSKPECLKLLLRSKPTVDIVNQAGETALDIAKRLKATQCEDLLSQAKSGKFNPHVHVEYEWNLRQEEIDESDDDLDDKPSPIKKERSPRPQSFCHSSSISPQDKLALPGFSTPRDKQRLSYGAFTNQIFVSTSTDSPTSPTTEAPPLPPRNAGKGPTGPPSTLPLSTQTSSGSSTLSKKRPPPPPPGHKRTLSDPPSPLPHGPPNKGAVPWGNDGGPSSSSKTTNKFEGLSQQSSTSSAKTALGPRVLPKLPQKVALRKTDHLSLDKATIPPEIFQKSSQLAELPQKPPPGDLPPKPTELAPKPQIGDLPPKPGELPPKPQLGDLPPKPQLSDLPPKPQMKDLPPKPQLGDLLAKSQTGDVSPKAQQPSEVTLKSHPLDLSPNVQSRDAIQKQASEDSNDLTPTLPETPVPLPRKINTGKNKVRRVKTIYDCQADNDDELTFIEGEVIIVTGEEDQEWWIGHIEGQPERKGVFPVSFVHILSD
# Sequence of Broad substrate specificity ATP-binding cassette transporter ABCG2 (Q9UNQ0 whole entry): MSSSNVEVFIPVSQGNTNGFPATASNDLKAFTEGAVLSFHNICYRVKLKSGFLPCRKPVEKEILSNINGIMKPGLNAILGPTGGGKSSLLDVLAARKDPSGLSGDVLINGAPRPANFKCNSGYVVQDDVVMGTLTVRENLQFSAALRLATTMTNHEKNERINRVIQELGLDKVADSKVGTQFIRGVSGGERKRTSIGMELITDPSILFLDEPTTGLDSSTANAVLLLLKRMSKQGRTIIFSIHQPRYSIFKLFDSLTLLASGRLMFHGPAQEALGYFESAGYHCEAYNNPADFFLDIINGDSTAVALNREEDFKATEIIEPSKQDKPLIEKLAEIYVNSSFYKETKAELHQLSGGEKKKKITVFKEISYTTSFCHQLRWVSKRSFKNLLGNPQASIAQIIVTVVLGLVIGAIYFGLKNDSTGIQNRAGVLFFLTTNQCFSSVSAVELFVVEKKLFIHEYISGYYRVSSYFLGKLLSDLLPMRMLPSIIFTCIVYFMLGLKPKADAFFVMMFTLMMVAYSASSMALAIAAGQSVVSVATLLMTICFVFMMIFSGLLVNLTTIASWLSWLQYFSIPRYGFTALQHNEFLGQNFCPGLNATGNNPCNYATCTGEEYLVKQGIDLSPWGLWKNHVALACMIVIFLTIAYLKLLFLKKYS
# Sequence of ADP-ribosylation factor GTPase-activating protein 1 (Q62848 whole entry, the tested form may be a part): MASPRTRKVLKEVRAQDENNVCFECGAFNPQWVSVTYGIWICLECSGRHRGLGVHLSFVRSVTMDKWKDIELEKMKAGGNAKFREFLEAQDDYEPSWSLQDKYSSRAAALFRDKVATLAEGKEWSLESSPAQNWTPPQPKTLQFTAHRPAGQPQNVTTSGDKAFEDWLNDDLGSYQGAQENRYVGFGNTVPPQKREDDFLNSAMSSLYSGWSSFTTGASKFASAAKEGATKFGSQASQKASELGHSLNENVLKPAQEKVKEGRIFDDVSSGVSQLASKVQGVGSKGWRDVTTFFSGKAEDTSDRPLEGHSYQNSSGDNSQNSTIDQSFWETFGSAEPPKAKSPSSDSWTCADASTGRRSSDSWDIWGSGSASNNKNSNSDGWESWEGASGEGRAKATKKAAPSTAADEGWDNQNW
# Sequence of 5-hydroxytryptamine receptor 2A (P35363 whole entry): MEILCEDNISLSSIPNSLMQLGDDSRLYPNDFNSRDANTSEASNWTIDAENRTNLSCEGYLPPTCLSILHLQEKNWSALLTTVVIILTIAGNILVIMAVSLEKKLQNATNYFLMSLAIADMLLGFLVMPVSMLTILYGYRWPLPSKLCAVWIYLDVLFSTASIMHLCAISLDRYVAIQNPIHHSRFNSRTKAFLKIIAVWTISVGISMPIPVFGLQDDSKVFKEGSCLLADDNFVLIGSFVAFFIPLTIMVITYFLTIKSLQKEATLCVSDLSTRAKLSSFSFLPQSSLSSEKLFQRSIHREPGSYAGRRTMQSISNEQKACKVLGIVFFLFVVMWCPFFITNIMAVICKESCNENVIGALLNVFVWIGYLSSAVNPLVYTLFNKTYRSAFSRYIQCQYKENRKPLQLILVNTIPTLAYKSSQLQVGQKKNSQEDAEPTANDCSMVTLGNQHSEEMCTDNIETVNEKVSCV
# Sequence of Nuclear receptor subfamily 0 group B member 1 (P51843 whole entry): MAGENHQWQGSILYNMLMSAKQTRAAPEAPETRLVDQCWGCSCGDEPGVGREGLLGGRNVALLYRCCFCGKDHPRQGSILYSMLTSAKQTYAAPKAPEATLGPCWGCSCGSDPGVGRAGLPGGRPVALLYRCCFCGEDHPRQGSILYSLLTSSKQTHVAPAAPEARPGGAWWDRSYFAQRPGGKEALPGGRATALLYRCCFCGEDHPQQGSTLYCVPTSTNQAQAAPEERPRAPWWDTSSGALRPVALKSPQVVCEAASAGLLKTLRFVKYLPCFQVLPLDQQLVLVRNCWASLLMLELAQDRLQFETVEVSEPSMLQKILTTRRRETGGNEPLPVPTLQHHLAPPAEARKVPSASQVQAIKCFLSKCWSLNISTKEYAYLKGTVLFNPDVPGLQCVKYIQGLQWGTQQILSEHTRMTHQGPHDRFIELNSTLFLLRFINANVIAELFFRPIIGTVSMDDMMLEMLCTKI
smiles,measurement,setting,value
COc1ccc([N+](=O)[O-])cc1NC(=O)c1ccc(Br)s1,IC50,[1],35.6 µM (inactive)
same,IC50,[2],20.8 µM (inactive)
Cc1c(C(=O)Nc2ccc(F)cc2)c2ccccn2c1CCc1ccncc1,EC50,[3],6.84 µM (inactive)
same,AC50,[4],20.4 µM (active)
O=[N+]([O-])c1ccc(CNc2ccc(Cl)cc2)s1,AC50,[5],> 100 µM (inactive)
COc1cc(Nc2c3ccccc3nc3ccccc23)cc(OC)c1OC,AC50,[6],29.2 µM (active)
same,EC50,[7],> 91.2 µM (inactive)
same,EC50,[8],> 91.2 µM (inactive)
same,AC50,[9],14.8 µM (active)
same,AC50,[10],5.17 µM (active)
COc1ccc(-c2oc3ccc(-c4ccc(OC)nc4)cc3c2C#CC2(O)CCCCC2)cc1,IC50,[11],5.57 µM (active)
same,CC50,[12],> 40 µM (active)
COc1ccc(/C=C2\CCCc3c2nc2ccccc2c3C(=O)O)cc1OC,EC50,[13],8.26 µM (inconclusive)
same,IC50,Beta-lactamase [14],11.2 µM (inactive)
same,EC50,[15],9.28 µM (active)
same,IC50,Beta-lactamase [16],> 59.6 µM (inactive)
Cc1ccc(CN2CCN(C(=O)c3ccco3)CC2)cc1,EC50,Mu-type opioid receptor,92.5 µM (inactive)
same,EC50,[17],0.475 µM (active)
CC(=Nc1ccccc1)C1=C(O)C(Cc2cccc(F)c2)NC1=O (centres undefined),IC50,[18],> 67.5 µM (inactive)
same,IC50,cells [19],> 67.5 µM (inactive)
C[C@H]1CN([C@@H](C)CO)S(=O)(=O)c2ccc(C#Cc3ccccn3)cc2O[C@@H]1CN(C)Cc1ccccc1,AC50,HeLa,> 52 µM (inactive)
same,AC50,HEK293,24.2 µM (active)
same,AC50,[20],24.2 µM (active)
CC(C)NC(=O)Nc1ccc2c(c1)C(=O)N([C@@H](C)CO)C[C@@H](C)[C@@H](CN(C)S(=O)(=O)c1ccc(Cl)cc1)O2,AC50,[21],69.6 µM (active)
CN(C)C(=O)c1ccc(-c2ccc([C@H]3[C@H](CO)N4CCCCN(C(=O)C5CCC5)C[C@@H]34)cc2)cc1,AC50,[22],0.072 µM (active)
CCC(C)Oc1ccc(CC(=O)NO)cc1 (centres undefined),IC50,[23],16.3 µM (inactive)
Cc1ccccc1NCC(=O)N/N=C\c1ccc([N+](=O)[O-])s1,CC50,[24],13.8 µM (active)
same,IC50,[25],46.7 µM (active)
same,IC50,[26],90.4 µM (inactive)
same,CC50,[27],18.8 µM (active)
same,EC50,[28],0.506 µM (active)
same,EC50,[29],> 60 µM (not active)
same,IC50,cells [30],5.71 µM (active)
same,CC50,[31],16 µM (active)
